Reference: ChEMBL document CHEMBL1151254, “A new anti-HIV alkaloid, drymaritin, and a new C-glycoside flavonoid, diandraflavone, from Drymaria diandra” (J Nat Prod, 2004)
≈ marks a conversion by molar mass, not a printed value.

Experiments:
[1] = system: Neutrophil; test: Inhibition of fMLP/CB-stimulated superoxide anion generation in human neutrophils; assay type: functional, cell-based
[2] = system: Human immunodeficiency virus; test: Antiviral activity against HIV in human H9 cells; assay type: functional, organism-based; conditions: Human immunodeficiency virus 1, H9

IC50 [1] | EC50 [2] | Compound
10 µg/mL (≈ 17.8 µM) | – | COc1cc2oc(-c3ccc([C@@H]4O[C@H](CO)[C@@H](O)[C@H](O)[C@H]4O)cc3)cc(=O)c2c(O)c1[C@H]1C[C@@H](O)[C@@H](O)[C@@H](C)O1 [DIANDRAFLAVONE A]
– | 20.6 µg/mL (≈ 82.3 µM) | COc1cnc2ccc(=O)n3c4ccccc4c1c23
– | 0.699 µg/mL (≈ 2.79 µM) | COc1cn2c3ccccc3c3ccnc(c1=O)c32 [DRYMARITIN]
